Columns and labels:
[1] = Hygroscopicity determination; format: physicochemical; conditions: for hygroscopicity / weight gain after moisture absorption: RH 80%; for crystalline form transformation (XRPD pattern): after 1 cycle of moisture absorption and desorption, 0-95% relative humidity
Procedure: The crystalline forms of the salt of the compound were placed in saturated water vapor at different relative humidities to reach a dynamic equilibrium between the crystalline forms of the salt of the compound and the water vapor, and the weight gain percentage after moisture absorption after equilibrium was calculated.

[2] = Solubility experiment in different vehicles; format: physicochemical; conditions: 37° C., 2 hours
[3] = Solid stability experiment; format: physicochemical
Procedure: About 1 mg of crystalline forms of different salts were taken and investigated at a high temperature of 60° C., a high humidity of RH=92.5%, and a high temperature and high humidity of 50° C. and 75% RH for 7 and 14 days. The changes of related substances were calculated for the crystalline forms of the salts by a chromatographic peak area normalization method.

[4] = Polymorphism study: slurrying of salt crystalline forms in solvents; format: physicochemical; conditions: 7 days
[5] = PK study of crystalline forms of different salts in rats; format: in vivo; conditions: SD rats, gavage, 0.5% HPMC K4M
[6] = tested on: human colorectal cancer cell strain DLD-1 BRCA2−/−; experiment: In vivo pharmacodynamics in DLD-1 BRCA2−/− subcutaneous graft tumor model; set-up: species or system BALB/c nude mice; conditions: DLD-1 BRCA2−/− nude mice, oral, once/day, 28 days
Procedure: • a. […] The cells were passaged every three days, and after passage, the cells were placed in a CO2 incubator to continue the culture. This process was repeated until the cell number meets the needs of in vivo efficacy. • c. The cultured cells were collected, counted using a full-automatic cell counter, resuspended with PBS according to the counting results, and prepared into a cell suspension (at a density of 5×10^7/mL), which was then placed in an ice box for use. • a. Nude mouse was marked with a disposable universal ear tag for mice and rats before inoculation. • b. At the time of inoculation, the cell suspension was mixed well, 0.1-1 mL of cell suspension was taken with a 1 mL syringe, and after removing air bubbles, the syringe was placed on an ice bag until use. • c. The nude mouse was secured with the left hand. […] The nude mice were inoculated successively (inoculation with 0.1 mL of cell suspension per mouse). • a. […] According to the weight of tumor-bearing mice and the size of the tumor, the mice were grouped by random grouping. • c. […] Tumors were measured and weighed twice a week after starting administration of test drugs. • e. […] The data was processed with software such as Excel.

[7] = tested on: BRCA2 Knockout DLD-1 cells; experiment: Inhibition of proliferation of BRCA2 Knockout DLD-1 cells (CellTiter-Glo); format: cell-based; conditions: Homo sapiens, about 144 hours
Procedure: When using RPMI1640 medium containing 10% FBS to culture BRCA2 Knockout DLD-1 cells to an appropriate cell density, the cells were collected and adjusted with complete medium to an appropriate cell concentration, the cell suspension was spread in a 96-well plate, with 90 μL per well, and the plate was placed in a 37° C., 5% CO2 incubator for overnight adherence. Compound solutions with different concentrations were prepared with DMSO and the culture medium, and a vehicle control was prepared. The compound solutions were added to the 96-well plate, with 10 μL per well, and the plate was placed in a 37° C., 5% CO2 incubator for continued culturing for about 144 hours. CellTiter-Glo solution was added and uniformly mixed by shaking. After incubation for 10-30 minutes in the dark, reading was carried out with Synergy H1 or Envision microplate reader.
The inhibition rate was calculated from the luminescence signal value, and the concentration and inhibition rate were subjected to non-linear regression curve fitting by using Graphpad Prism software to obtain an IC50 value. The inhibitory effects of the compounds of some examples of the present disclosure on the proliferation activity of BRCA2 Knockout DLD-1 cells were as shown in the following table: […]

[8] = FaSSGF (simulated gastric fluid, fasted)
[9] = FaSSIF (simulated intestinal fluid, fasted)
[10] = FeSSIF (simulated intestinal fluid, fed)

Compound: 1′-((7-ethyl-6-carbonyl-5,6-dihydro-1,5-diazanaphth-3-yl)methyl)-N-methyl-1′,2′,3′,6′-tetrahydro-[3,4′-bipyridinyl]-6-carboxamide [p-toluenesulfonate dihydrate crystalline Form A]
- hygroscopicity [1]: weak hygroscopicity
- weight gain after moisture absorption [1]: 1.906%
- crystalline form transformation (XRPD pattern) [1]: no crystalline form transformation occurred
- solubility [2, 8]: >0.437 mg/mL
- solubility [2, 9]: 0.147 mg/mL
- solubility [2, 10]: >0.340 mg/mL
- solubility ([2]; Water): 0.308 mg/mL
- Stability result (total impurity increase %) ([3]; 50° C., 75% RH, 7 days): <0.03%
- Stability result (total impurity increase %) ([3]; 50° C., 75% RH, 14 days): <0.03%
- Stability result (total impurity increase %) ([3]; 60° C., 7 days): <0.03%
- Stability result (total impurity increase %) ([3]; 60° C., 14 days): <0.03%
- Stability result (total impurity increase %) ([3]; 92.5% RH, 7 days): 0.08%
- Stability result (total impurity increase %) ([3]; 92.5% RH, 14 days): <0.03%
- Slurrying result ([4]; 1,4-Dioxane, 40° C.): Still as hydrate crystalline
- Slurrying result ([4]; 2-Butanone, 40° C.): Still as hydrate crystalline
- Slurrying result ([4]; 2-Methyltetrahydrofuran, 40° C.): Still as hydrate crystalline
- Slurrying result ([4]; Acetone, 40° C.): p-Toluenesulfonate crystalline
- Slurrying result ([4]; Acetonitrile, 40° C.): p-Toluenesulfonate crystalline
- Slurrying result ([4]; Dichloromethane, 40° C.): p-Toluenesulfonate crystalline
- Slurrying result ([4]; Ethanol, 40° C.): p-Toluenesulfonate crystalline
- Slurrying result ([4]; Ethyl acetate, 40° C.): Still as hydrate crystalline
- Slurrying result ([4]; Ethyl formate, 40° C.): p-Toluenesulfonate crystalline
- Slurrying result ([4]; Isopropanol, 40° C.): Still as hydrate crystalline
- Slurrying result ([4]; Methyl tert-butyl ether, 40° C.): Still as hydrate crystalline
- Slurrying result ([4]; Tetrahydrofuran, 40° C.): Still as hydrate crystalline
- Slurrying result ([4]; Toluene, 40° C.): Still as hydrate crystalline
- Slurrying result ([4]; Trichloromethane, 40° C.): p-Toluenesulfonate crystalline
- Slurrying result ([4]; methanol, 40° C.): p-Toluenesulfonate crystalline
- AUC0-t ([5]; 5 mpk): 145.036 µg·h/mL
- AUC0-∞ ([5]; 5 mpk): 146.622 µg·h/mL
- Cmax ([5]; 5 mpk): 17433 ng/mL
- t1/2 ([5]; 5 mpk): 3.8 h
- F % ([5]; 5 mpk, 5 mg/kg): 92%
- MRT0-∞ ([5]; 5 mpk, 5 mg/kg): 5.4 h
- tmax ([5]; 5 mpk, 5 mg/kg): 1.0 h
- AUC0-t ([5]; 20 mpk): 558.44 µg·h/mL
- AUC0-∞ ([5]; 20 mpk): 587.652 µg·h/mL
- Cmax ([5]; 20 mpk): 53400 ng/mL
- F % ([5]; 20 mpk): 93%
- MRT0-∞ ([5]; 20 mpk): 7.5 h
- t1/2 ([5]; 20 mpk): 5.7 h
- tmax ([5]; 20 mpk): 4.0 h

Compound: 1′-((7-ethyl-6-carbonyl-5,6-dihydro-1,5-diazanaphth-3-yl)methyl)-N-methyl-1′,2′,3′,6′-tetrahydro-[3,4′-bipyridinyl]-6-carboxamide [sulfate crystalline Form A]
- hygroscopicity [1]: weak hygroscopicity
- weight gain after moisture absorption [1]: 1.785%
- crystalline form transformation (XRPD pattern) [1]: no crystalline form transformation occurred
- solubility [2, 8]: >0.466 mg/mL
- solubility [2, 9]: 0.133 mg/mL
- solubility [2, 10]: >0.347 mg/mL
- solubility ([2]; Water): 0.696 mg/mL
- Stability result (total impurity increase %) ([3]; 50° C., 75% RH, 7 days): 0.12%
- Stability result (total impurity increase %) ([3]; 50° C., 75% RH, 14 days): 0.56%
- Stability result (total impurity increase %) ([3]; 60° C., 7 days): 0.76%
- Stability result (total impurity increase %) ([3]; 60° C., 14 days): 0.66%
- Stability result (total impurity increase %) ([3]; 92.5% RH, 7 days): 0.17%
- Stability result (total impurity increase %) ([3]; 92.5% RH, 14 days): 0.06%
- Slurrying result ([4]; 1,4-Dioxane, 50° C.): Crystalline Form A
- Slurrying result ([4]; 2-Me—THF, 50° C.): Crystalline Form A
- Slurrying result ([4]; ACN, 50° C.): Crystalline Form A
- Slurrying result ([4]; Acetone, 50° C.): Crystalline Form A
- Slurrying result ([4]; EA, 50° C.): Crystalline Form A
- Slurrying result ([4]; EtOH, 50° C.): Crystalline Form A
- Slurrying result ([4]; MeOH, 50° C.): Crystalline Form A
- Slurrying result ([4]; THF, 50° C.): Crystalline Form A
- Slurrying result ([4]; Toluene, 50° C.): Crystalline Form A
- AUC0-t ([5]; 5 mpk, 5 mg/kg): 118.078 µg·h/mL
- AUC0-∞ ([5]; 5 mpk, 5 mg/kg): 119.241 µg·h/mL
- Cmax ([5]; 5 mpk, 5 mg/kg): 14467 ng/mL
- F % ([5]; 5 mpk, 5 mg/kg): 75%
- MRT0-∞ ([5]; 5 mpk, 5 mg/kg): 5.3 h
- t1/2 ([5]; 5 mpk, 5 mg/kg): 3.7 h
- tmax ([5]; 5 mpk, 5 mg/kg): 2.0 h

Compound: CCc1cc2ncc(CN3CC=C(c4ccc(C(=O)NC5CC5)nc4)CC3)cc2[nH]c1=O [Example 2]
- animal weight [6]: without significant reduction of the animal weight

Compound: CCc1cc2ncc(CN3CC=C(c4ccc(C(=O)NOC)nc4)CC3)cc2[nH]c1=O [Example 3]
- IC50 [7]: 3.2 nM

Compound: CCc1cc2ncc(CN3CC=C(c4ccc(C(=O)NC)nc4Cl)CC3)cc2[nH]c1=O [Example 13]
- IC50 [7]: 1 nM

Compound: CCc1cc2ncc(CN3CC=C(c4ccc(C(=O)NCC#N)nc4)CC3)cc2[nH]c1=O [Example 15]
- IC50 [7]: 2.4 nM

Compound: CCc1cc2ncc(CN3CC=C(c4ccc(C(=O)NC5(C#N)CC5)nc4)CC3)cc2[nH]c1=O [Example 16]
- IC50 [7]: 2.7 nM

Compound: CCc1cc2ncc(CN3CCC(c4ccc(C(=O)NC)nc4)=C(F)C3)cc2[nH]c1=O [Example 19]
- IC50 [7]: 1.5 nM

Compound: CCc1cc2ncc(CN3CC=C(c4ccc(C(=O)NCC(F)(F)F)nc4)CC3)cc2[nH]c1=O [Example 20]
- IC50 [7]: 1.4 nM

Compound: CNC(=O)c1ccc(C2=CCN(Cc3cnc4cc(C(F)(F)F)c(=O)[nH]c4c3)CC2)cn1 [Example 21]
- IC50 [7]: 5.1 nM

— patent US20260151378A1, “SALT AND CRYSTAL FORM OF HETEROCYCLIC DERIVATIVE INHIBITOR, AND PREPARATION METHOD THEREFOR AND USE THEREOF” (SHANGHAI HANSOH BIOMEDICAL CO., LTD., priority 2022, published 2026)
